Values belong to the molecule of their own block, whether it stands above or below them.
What was measured:
[1] = tested on: guinea pig stomach strips; conditions: cited from earlier work; for guinea pig stomach muscle strip contraction in vitro: Buchheit et al 1985
gastric emptying = conditions: cited from earlier work; for gastric emptying rates in vivo: Buchheit et al 1985; for gastric emptying: Gidda et al 1988
[2] = tested on: 5-HT3-mediated Bezold Jarisch reflex; conditions: in vivo; cited from earlier work
5-HT4 receptor [3] = conditions: Dumuis et al 1989; mouse embryonic colliculi neurons; cited from earlier work
myenteric neurons = conditions: Nemeth and Gullikson; cited from earlier work
5-HT4 receptors = conditions: Craig and Clarke; cited from earlier work
5-HT4 receptor [4] = target: T1, 5-HT4 receptor (Rattus norvegicus, UniProt Q62758); assay type: cell-based; conditions: Table I; tissues from 5 rats; carbachol 3 μM; read-out: 5-HT4 Agonism (Rat TMM) In Vitro Assay: EC50 values
T1 construct: The inner tunica muscularis mucosa was mounted under 0.2-0.3 g of tension in a tissue bath; from tissue; host or cells: rat intrathoracic oesophagus, tunica muscularis mucosae
Excerpt: (§1) (Baxter et al., Naunyn Schmied Arch. Pharmacol, 1991, 343, 439). […] One with skill in the art could determine the activity of the compounds of the present invention using the methodology of these assays, described herein, without undue experimentation.
One 2 cm segment of intrathoracic esophagus proximal to the diaphragm was removed from male rats, weighing approximately 300 gm, and the outer muscle layers removed. The inner tunica muscularis mucosa was mounted under 0.2-0.3 g of tension in a tissue bath containing oxygenated Tyrode's solution at 37° C. […] Following a 30 min equilibrium period, tissues were isometrically contracted with carbachol (3 μM) to obtain a tonic contraction. A stable plateau was obtained within 20 min when test compound was added cumulatively to relax the muscle strip. EC50 values were obtained for each agonist in tissues from 5 rats.

5-HT3 receptor = target: T2, 5-HT3 receptor (Rattus norvegicus, UniProt P35563); assay: 5-HT3 radioligand receptor binding assay ([3H]-GR65630, rat brain cortex membranes)
T2 construct: Brain cortices were obtained from male rats and a membrane fraction prepared by standard techniques; from tissue; host or cells: rat brain cortex membranes
T2 sequence (P35563 24-483): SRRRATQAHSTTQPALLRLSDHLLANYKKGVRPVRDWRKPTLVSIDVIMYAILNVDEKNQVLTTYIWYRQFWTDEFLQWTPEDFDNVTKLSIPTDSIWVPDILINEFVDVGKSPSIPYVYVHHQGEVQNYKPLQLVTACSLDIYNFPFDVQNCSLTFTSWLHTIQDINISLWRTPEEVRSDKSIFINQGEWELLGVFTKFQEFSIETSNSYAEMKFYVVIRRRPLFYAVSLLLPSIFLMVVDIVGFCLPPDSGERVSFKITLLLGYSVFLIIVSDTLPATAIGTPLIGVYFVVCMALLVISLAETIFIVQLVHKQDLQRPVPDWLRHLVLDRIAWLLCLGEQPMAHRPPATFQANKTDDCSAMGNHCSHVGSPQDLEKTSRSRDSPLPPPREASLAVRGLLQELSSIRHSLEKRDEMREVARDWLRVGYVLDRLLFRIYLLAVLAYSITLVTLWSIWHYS
Description: as §1
Procedure: GR65630 binds to the 5-HT3 receptor. Brain cortices were obtained from male rats and a membrane fraction prepared by standard techniques. 0.04 mg of membrane prep was incubated with 0.2 nM [^3 H]-GR65630 for 66 minutes at 22° C. […] Membranes were filtered and washed 3 times and the filters were counted to determine [^3 H]-GR65630 specifically bound. (Kilpatrick G. J., Jones B. J. and Tyers M. B., Identification and Distribution of 5-HT3 Receptors in Rat Brain Using Radioligand Binding Assay, Nature, 330, 746-748 (1987)).

GI transit = conditions: cited from earlier work
charcoal meal transit = conditions: Kimura et al 1989; cited from earlier work
antroduodenal motility = conditions: Van Nueten et al 1989, cited from earlier work
GI tract = conditions: various animal models; cited from earlier work

T1 sequence (Q62758 whole entry): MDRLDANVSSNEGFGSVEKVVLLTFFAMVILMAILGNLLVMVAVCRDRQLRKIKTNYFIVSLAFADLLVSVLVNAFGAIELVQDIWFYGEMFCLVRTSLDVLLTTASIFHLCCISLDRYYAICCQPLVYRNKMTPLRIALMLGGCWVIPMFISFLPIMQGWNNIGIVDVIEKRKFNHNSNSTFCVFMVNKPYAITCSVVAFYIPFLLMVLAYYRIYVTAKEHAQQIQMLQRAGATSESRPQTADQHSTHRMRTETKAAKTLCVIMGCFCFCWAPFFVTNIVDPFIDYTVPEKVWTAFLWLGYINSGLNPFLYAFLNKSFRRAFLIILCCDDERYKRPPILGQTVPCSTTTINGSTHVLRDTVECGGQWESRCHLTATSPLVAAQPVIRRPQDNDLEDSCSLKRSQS

Structure (SMILES): CCN(CC)CCNC(=O)c1cc(Cl)c(N)cc1OC [metoclopramide]
guinea pig stomach muscle strip contraction in vitro [1]: enhanced guinea pig stomach muscle strip contraction in vitro
electrical-field stimulated contractions in guinea pig stomach strips ([1]; Gunning and Naylor 1985): enhanced electrical-field stimulated contractions in guinea pig stomach strips
gastric emptying rates in vivo (gastric emptying): increases in gastric emptying rates in vivo
block of the 5-HT3-mediated Bezold Jarisch reflex [2]: blocks the 5-HT3-mediated Bezold Jarisch reflex

Structure (SMILES): COc1cc(N)c(Cl)cc1C(=O)NC1CCN2CCCC1C2 (stereo not shown) [BRL-24924]
agonist activity at 5-HT4 receptor (5-HT4 receptor [3]): agonist activity
ability to depolarize myenteric neurons versus 5-HT3 antagonism (myenteric neurons): unrelated to their properties of 5-HT3 antagonism
peristaltic reflex evoked, mediated through agonism at 5-HT4 receptors (5-HT4 receptors): mediated through agonism at 5-HT4 receptors

Structure (SMILES): COc1cc(N)c(Cl)cc1C(=O)NC1CN2CCC1CC2 (stereo not shown) [zacopride]
gastric emptying (gastric emptying): enhanced gastric emptying

EC50 (5-HT4 receptor [4]): 415 nM
Structure (SMILES): COc1cc(N)c(Cl)cc1C(=O)NC[C@@H]1[C@@H]2C[C@@H]3C[C@H]1N(C3)C2 (relative stereo) [Example 2, 4-amino-5-chloro-N-(hexahydro-2β,6β-methano-1H,7aα-pyrrolizin-1β-ylmethyl)-2-methoxybenzamide]

Structure (SMILES): COc1cc(N)c(Cl)cc1C(=O)NC[C@@H]1[C@H]2C[C@H]3C[C@@H]1N(C3)C2 [Example 3, 4-amino-5-chloro-N-(hexahydro-2β,6β-methano-1H,7aα-pyrrolizin-1S,1α-ylmethyl)-2-methoxybenzamide]
EC50 (5-HT4 receptor [4]): 140 nM

Structure (SMILES): COc1cc(N)c(Cl)cc1C(=O)NC[C@@H]1[C@H]2C[C@H]3C[C@@H]1N(C3)C2 (relative stereo) [Example 1, 4-amino-5-chloro-N-(hexahydro-2β,6β-methano-1H,7aα-pyrrolizin-1β-ylmethyl)-2-methoxybenzamide]
EC50 (5-HT4 receptor [4]): 175 nM
Ki (5-HT3 receptor; read-out: Ki, effect of compounds on [3H]-GR65630 bound, Table II, 0.2 nM [3H]-GR65630, 66 minutes, 22° C.): 5.5 nM

Structure (SMILES): Cc1nccn1CC1CCc2c(c3ccccc3n2C)C1=O (stereo not shown) [GR38032]
gastric emptying (gastric emptying): enhanced gastric emptying
GI transit in man (GI transit; Gore et al 1990): failed to accelerate GI transit
colonic transit in man (GI transit; Gore et al 1990): slowed colonic transit in man
small intestinal transit times or mouth-to-cecum transit times (GI transit; Talley et al 1989, man): did not alter small intestinal transit times or mout-to-cecum transit times

Structure (SMILES): Cc1nc[nH]c1CCC(=O)c1cn(C)c2ccccc12 [[^3 H]-GR65630]
% Specific Binding (5-HT3 receptor; radioligand, non-specific binding with 1 uM ICS 205-930): 70%
Bmax (5-HT3 receptor; radioligand, rat brain cortex membranes): 154 fmol/mg protein

Structure (SMILES): Cc1nccn1CC1CCc2c(c3ccccc3n2C)C1=O.Cl.O.O (stereo not shown) [SN-307]
transit of a charcoal meal in mice (charcoal meal transit): enhanced transit of a charcoal meal in mice

Structure (SMILES): CN1[C@@H]2CC[C@H]1C[C@@H](OC(=O)c1cc(Cl)cc(Cl)c1)C2 [MDL 72222]
guinea pig stomach muscle strip contraction in vitro [1]: enhanced guinea pig stomach muscle strip contraction in vitro
gastric emptying rates in vivo (gastric emptying): increases in gastric emptying rates in vivo

Structure (SMILES): COc1cc(N)c(Cl)cc1C(=O)NC1CCN(CCCOc2ccc(F)cc2)CC1OC (stereo not shown) [Cisapride]
antroduodenal motility in dogs (antroduodenal motility): enhanced antroduodenal motility in dogs
agonist activity at 5-HT4 receptor (5-HT4 receptor [3]): agonist activity
ability to depolarize myenteric neurons versus 5-HT3 antagonism (myenteric neurons): unrelated to their properties of 5-HT3 antagonism

Structure (SMILES): CN1[C@@H]2CC[C@H]1C[C@@H](OC(=O)c1c[nH]c3ccccc13)C2 [ICS 205-930]
guinea pig stomach muscle strip contraction in vitro [1]: enhanced guinea pig stomach muscle strip contraction in vitro
gastric emptying rates in vivo (gastric emptying): increases in gastric emptying rates in vivo
gastric emptying (gastric emptying): enhanced gastric emptying
effect on the responses to cisapride when coadministered (antroduodenal motility; dogs): did not affect the responses to cisapride

EC50 (5-HT4 receptor [4]): 274 nM
Structure (SMILES): COc1cc(N)c(Cl)cc1C(=O)NC[C@H]1[C@@H]2C[C@@H]3C[C@H]1N(C3)C2 [Example 4, 4-amino-5-chloro-N-(hexahydro-2β,6β-methano-1H,7aα-pyrrolizin-1R,1α-ylmethyl)-2-methoxybenzamide]

Structure (SMILES): NCCc1c[nH]c2ccc(O)cc12 [Serotonin, 5-hydroxytryptamine]
peristalsis in the GI tract (GI tract): promote peristalsis in the GI tract
peristaltic reflex evoked, mediated through agonism at 5-HT4 receptors (5-HT4 receptors): mediated through agonism at 5-HT4 receptors
